Assay results reported in ChEMBL document CHEMBL1782017, “Synthesis and biological evaluation of new flavonoid fatty acid esters with anti-adipogenic and enhancing glucose consumption activities” (2011).

Experiments:
3T3-L1 [1] = assay: Inhibition of adipogenesis in mouse 3T3L1 cells at 100 umol/L after 8 days by Oil red O-staining; format: functional; conditions: 3T3-L1, 192 h
3T3-L1 [2] = assay: Antiproliferative activity against mouse 3T3L1 cells after 48 hrs by MTT assay; format: functional; parameters: concentration or dose not given beside the values
3T3-L1 [3] = assay: Glucose consumption in differentiated mouse 3T3L1 cells in low-glucose medium at 50 ug/ml after 24 hrs by glucose-oxidase method (Rvb =2.41 +/- 0.22 mmol/L); format: functional
3T3-L1 [4] = assay: Glucose consumption in differentiated mouse 3T3L1 cells in high-glucose medium at 50 ug/ml after 24 hrs by glucose-oxidase method (Rvb =3.06 +/- 0.29 mmol/L); format: functional
3T3-L1 [5] = assay: Glucose consumption in differentiated mouse 3T3L1 cells in high-glucose medium at 100 ug/ml after 24 hrs by glucose-oxidase method (Rvb =3.12 +/- 0.32 mmol/L); format: functional
3T3-L1 [6] = assay: Glucose consumption in differentiated mouse 3T3L1 cells in low-glucose medium after 24 hrs by glucose-oxidase method; format: functional, cell-based
3T3-L1 [7] = assay: Glucose consumption in differentiated mouse 3T3L1 cells in high-glucose medium after 24 hrs by glucose-oxidase method; format: functional, cell-based
3T3-L1 [8] = assay: Glucose consumption in differentiated mouse 3T3L1 cells in low-glucose medium at 100 ug/ml after 24 hrs by glucose-oxidase method (Rvb =2.35 +/- 0.19 mmol/L); format: functional
3T3-L1 [9] = assay: Increase in glucose consumption in differentiated mouse 3T3L1 cells in low-glucose medium at 50 ug/ml after 24 hrs by glucose-oxidase method relative to control; format: functional
3T3-L1 [10] = assay: Increase in glucose consumption in differentiated mouse 3T3L1 cells in low-glucose medium at 100 ug/ml after 24 hrs by glucose-oxidase method relative to control; format: functional
3T3-L1 [11] = assay: Increase in glucose consumption in differentiated mouse 3T3L1 cells in high-glucose medium at 100 ug/ml after 24 hrs by glucose-oxidase method relative to control; format: functional

SMILES: CCCCCCCCCCCCCCCCCC(=O)Oc1ccc2c(=O)c(Cc3ccc(OC)cc3)coc2c1
- inhibition at 100 µM (3T3-L1 [1]): 1.95%
- Activity (3T3-L1 [2]): -31.87%

SMILES: CCCCCCCCCCCCCCCCCC(=O)Oc1ccc2c(c1)C(=O)/C(=C/c1ccc(OC)c(OC)c1)O2
- Activity (3T3-L1 [2]): -3.84%

SMILES: CCCCCCCCCCCCCCCC(=O)Oc1ccc2c(c1)C(=O)/C(=C/c1ccc(OC)c(OC)c1)O2
- Activity (3T3-L1 [2]): -3.72%

SMILES: CCCCC/C=C\C=C\CCCCCCCCC(=O)Oc1ccc2c(=O)c(Cc3ccc(OC)cc3)coc2c1
- Activity (3T3-L1 [2]): -4.37%

SMILES: CCCCCCCCCCCCCCCCCC(=O)Oc1ccc2c(c1)O/C(=C\c1ccc(OC)cc1)C2=O
- inhibition at 100 µM (3T3-L1 [1]): 0%
- Activity (3T3-L1 [2]): 11.43%

SMILES: CCCCCCCCCCCCCCCC(=O)Oc1ccc2c(c1)C(=O)/C(=C/c1ccc(F)cc1)O2
- Activity (3T3-L1 [2]): -0.47%

SMILES: CCCCC/C=C\C=C\CCCCCCCCC(=O)Oc1ccc2c(c1)C(=O)/C(=C/c1ccc(OC)c(OC)c1)O2
- inhibition at 100 µM (3T3-L1 [1]): 1.88%
- Activity (3T3-L1 [3]): 2.99 mmol/L
- Activity (3T3-L1 [4]): 3.71 mmol/L
- Activity (3T3-L1 [2]): 20.72%
- Activity (3T3-L1 [5]): 5.08 mmol/L
- Activity (3T3-L1 [6]): Dose-dependent effect
- Activity (3T3-L1 [7]): Dose-dependent effect
- Activity (3T3-L1 [8]): 3.85 mmol/L

SMILES: C=CCCCCCCCCC(=O)Oc1ccc2c(c1)C(=O)/C(=C/c1ccc(Br)cc1)O2
- Activity (3T3-L1 [2]): 1.25%

SMILES: C=CCCCCCCCCC(=O)Oc1ccc2c(c1)C(=O)/C(=C/c1ccc(OC)cc1)O2
- Activity (3T3-L1 [2]): -2.09%

SMILES: CCCCCCCC/C=C\CCCCCCCC(=O)Oc1ccc2c(c1)C(=O)/C(=C/c1ccc(OC)cc1)O2
- inhibition at 100 µM (3T3-L1 [1]): 11.7%
- Activity (3T3-L1 [3]): 4.48 mmol/L
- Activity (3T3-L1 [4]): 4.91 mmol/L
- Activity (3T3-L1 [2]): 17.69%
- Activity (3T3-L1 [5]): 5.67 mmol/L
- Activity (3T3-L1 [6]): Dose-dependent effect
- Activity (3T3-L1 [7]): Dose-dependent effect
- Activity (3T3-L1 [8]): 5.05 mmol/L

SMILES: CCCCC/C=C\C=C\CCCCCCCCC(=O)Oc1ccc2c(c1)C(=O)/C(=C/c1ccc(F)cc1)O2
- inhibition at 100 µM (3T3-L1 [1]): 0%
- Activity (3T3-L1 [2]): 14.2%

SMILES: CCCCCCCCCCCCCCCCCC(=O)Oc1ccc2c(c1)C(=O)/C(=C/c1cccc([N+](=O)[O-])c1)O2
- Activity (3T3-L1 [2]): -5.03%

SMILES: CCCCC/C=C\C=C\CCCCCCCCC(=O)Oc1ccc2c(c1)C(=O)/C(=C/c1ccc(Br)cc1)O2
- Activity (3T3-L1 [2]): 11.09%

SMILES: CCCCC/C=C\C=C\CCCCCCCCC(=O)Oc1ccc2c(c1)C(=O)/C(=C/c1ccc(OC)cc1)O2
- inhibition at 100 µM (3T3-L1 [1]): 22.6%
- Activity (3T3-L1 [2]): -24.96%

SMILES: C=CCCCCCCCCC(=O)Oc1ccc2c(c1)C(=O)/C(=C/c1cccc(OC)c1)O2
- Activity (3T3-L1 [2]): 0.21%

SMILES: CCCCCCCCCCCCCCCCCC(=O)Oc1ccc2c(c1)C(=O)/C(=C/c1ccc(F)cc1)O2
- Activity (3T3-L1 [2]): -9.45%

SMILES: CCCCCCCC/C=C\CCCCCCCC(=O)Oc1ccc2c(c1)C(=O)/C(=C/c1ccc(OC)c(OC)c1)O2
- inhibition at 100 µM (3T3-L1 [1]): 0%
- Activity (3T3-L1 [2]): 12.53%

SMILES: C=CCCCCCCCCC(=O)Oc1ccc2c(c1)C(=O)/C(=C/c1cccc(Cl)c1)O2
- inhibition at 100 µM (3T3-L1 [1]): 28.7%
- Activity (3T3-L1 [3]): 2.88 mmol/L
- Activity (3T3-L1 [4]): 3.86 mmol/L
- Activity (3T3-L1 [2]): 57.4%
- Activity (3T3-L1 [5]): 4.49 mmol/L
- Activity (3T3-L1 [6]): Dose-dependent effect
- Activity (3T3-L1 [7]): Dose-dependent effect
- Activity (3T3-L1 [8]): 3.56 mmol/L

SMILES: CCCCCCCC/C=C\CCCCCCCC(=O)Oc1ccc2c(c1)C(=O)/C(=C/c1cccc(Cl)c1)O2
- inhibition at 100 µM (3T3-L1 [1]): 0%
- Activity (3T3-L1 [2]): 20.76%

SMILES: C=CCCCCCCCCC(=O)Oc1ccc2c(c1)C(=O)/C(=C/c1ccc(F)cc1)O2
- inhibition at 100 µM (3T3-L1 [1]): 25.4%
- Activity (3T3-L1 [3]): 4.41 mmol/L
- Activity (3T3-L1 [4]): 5.16 mmol/L
- Activity (3T3-L1 [2]): 16.67%
- Activity (3T3-L1 [5]): 5.85 mmol/L
- Activity (3T3-L1 [6]): Dose-dependent effect
- Activity (3T3-L1 [7]): Dose-dependent effect
- Activity (3T3-L1 [8]): 5.45 mmol/L

SMILES: CCCCCCCC/C=C\CCCCCCCC(=O)Oc1ccc2c(c1)C(=O)/C(=C/c1ccc(F)cc1)O2
- inhibition at 100 µM (3T3-L1 [1]): 9.38%
- Activity (3T3-L1 [3]): 3.81 mmol/L
- Activity (3T3-L1 [4]): 4.07 mmol/L
- Activity (3T3-L1 [2]): 22.57%
- Activity (3T3-L1 [5]): 4.82 mmol/L
- Activity (3T3-L1 [6]): Dose-dependent effect
- Activity (3T3-L1 [7]): Dose-dependent effect
- Activity (3T3-L1 [8]): 4.35 mmol/L

SMILES: CCCCCCCC/C=C\CCCCCCCC(=O)Oc1ccc2c(=O)c(Cc3ccc(OC)cc3)coc2c1
- inhibition at 100 µM (3T3-L1 [1]): 47.5%
- Activity (3T3-L1 [3]): 2.71 mmol/L
- Activity (3T3-L1 [4]): 3.49 mmol/L
- Activity (3T3-L1 [2]): 1.88%
- Activity (3T3-L1 [5]): 4.23 mmol/L
- Activity (3T3-L1 [6]): Dose-dependent effect
- Activity (3T3-L1 [7]): Dose-dependent effect
- Activity (3T3-L1 [8]): 3.38 mmol/L

SMILES: CCCCCCCCCCCCCCCC(=O)Oc1ccc2c(c1)C(=O)/C(=C/c1cccc(OC)c1)O2
- Activity (3T3-L1 [2]): -20.26%

SMILES: CCCCC/C=C\C=C\CCCCCCCCC(=O)Oc1ccc2c(c1)C(=O)/C(=C/c1cccc([N+](=O)[O-])c1)O2
- inhibition at 100 µM (3T3-L1 [1]): 15.1%
- Activity (3T3-L1 [3]): 3.64 mmol/L
- Activity (3T3-L1 [4]): 4.21 mmol/L
- Activity (3T3-L1 [2]): -12.06%
- Activity (3T3-L1 [5]): 4.95 mmol/L
- Activity (3T3-L1 [6]): Dose-dependent effect
- Activity (3T3-L1 [7]): Dose-dependent effect
- Activity (3T3-L1 [8]): 4.29 mmol/L

SMILES: C=CCCCCCCCCC(=O)Oc1ccc2c(=O)c(Cc3ccc(OC)cc3)coc2c1
- Activity (3T3-L1 [2]): -17.45%

SMILES: CCCCCCCCCCCCCCCCCC(=O)Oc1ccc2c(c1)C(=O)/C(=C/c1ccc(OC)cc1)O2
- Activity (3T3-L1 [2]): -10.93%

SMILES: C=CCCCCCCCCC(=O)Oc1ccc2c(c1)C(=O)/C(=C/c1cccc([N+](=O)[O-])c1)O2
- Activity (3T3-L1 [2]): -8.37%

SMILES: CCCCCCCCCCCCCCCCCC(=O)Oc1ccc2c(c1)C(=O)/C(=C/c1ccc(Br)cc1)O2
- Activity (3T3-L1 [2]): 5.02%

SMILES: CCCCCCCC/C=C\CCCCCCCC(=O)Oc1ccc2c(c1)O/C(=C\c1ccc(OC)cc1)C2=O
- inhibition at 100 µM (3T3-L1 [1]): 14.3%
- Activity (3T3-L1 [3]): 4.94 mmol/L
- fold change (FC) (3T3-L1 [9]): 2.39
- Activity (3T3-L1 [4]): 5.48 mmol/L
- Activity (3T3-L1 [2]): 22.18%
- Activity (3T3-L1 [5]): 6.05 mmol/L
- Activity (3T3-L1 [6]): Dose-dependent effect
- Activity (3T3-L1 [7]): Dose-dependent effect
- fold change (FC) (3T3-L1 [10]): 2.39
- Activity (3T3-L1 [8]): 5.61 mmol/L
- fold change (FC) (3T3-L1 [11]): 2.39

SMILES: C=CCCCCCCCCC(=O)Oc1ccc2c(c1)C(=O)/C(=C/c1ccc(OC)c(OC)c1)O2
- Activity (3T3-L1 [2]): -22.17%

SMILES: CCCCCCCC/C=C\CCCCCCCC(=O)Oc1ccc2c(c1)C(=O)/C(=C/c1ccc(Br)cc1)O2
- inhibition at 100 µM (3T3-L1 [1]): 16.6%
- Activity (3T3-L1 [2]): -6.62%

SMILES: CCCCCCCCCCCCCCCCCC(=O)Oc1ccc2c(c1)C(=O)/C(=C/c1cccc(Cl)c1)O2
- Activity (3T3-L1 [2]): -0.06%

SMILES: CCCCCCCC/C=C\CCCCCCCC(=O)Oc1ccc2c(=O)c(-c3ccc(OC)cc3)coc2c1 [OLEOYL FORMONONETIN]
- inhibition at 100 µM (3T3-L1 [1]): 2.52%
- Activity (3T3-L1 [3]): 5.01 mmol/L
- Activity (3T3-L1 [4]): 6.52 mmol/L
- Activity (3T3-L1 [2]): 10.91%
- Activity (3T3-L1 [5]): 7.49 mmol/L
- Activity (3T3-L1 [6]): Dose-dependent effect
- Activity (3T3-L1 [7]): Dose-dependent effect
- Activity (3T3-L1 [8]): 6.95 mmol/L

SMILES: C=CCCCCCCCCC(=O)Oc1ccc2c(c1)O/C(=C\c1ccc(OC)cc1)C2=O
- Activity (3T3-L1 [2]): -1.39%

SMILES: CCCCCCCCCCCCCCCCCC(=O)Oc1ccc2c(c1)C(=O)/C(=C/c1cccc(OC)c1)O2
- Activity (3T3-L1 [2]): -10.94%

SMILES: CCCCCCCC/C=C\CCCCCCCC(=O)Oc1ccc2c(c1)C(=O)/C(=C/c1cccc(OC)c1)O2
- inhibition at 100 µM (3T3-L1 [1]): 0%
- Activity (3T3-L1 [2]): -5.41%

SMILES: CCCCCCCC/C=C\CCCCCCCC(=O)Oc1ccc2c(c1)C(=O)/C(=C/c1cccc([N+](=O)[O-])c1)O2
- inhibition at 100 µM (3T3-L1 [1]): 15.6%
- Activity (3T3-L1 [3]): 2.93 mmol/L
- Activity (3T3-L1 [4]): 3.35 mmol/L
- Activity (3T3-L1 [2]): 17.55%
- Activity (3T3-L1 [5]): 3.96 mmol/L
- Activity (3T3-L1 [8]): 3.47 mmol/L

SMILES: CCCCCCCCCCCCCCCC(=O)Oc1ccc2c(c1)C(=O)/C(=C/c1ccc(Br)cc1)O2
- Activity (3T3-L1 [2]): 1.05%

SMILES: CCc1ccc(CCOc2ccc(CC3SC(=O)NC3=O)cc2)nc1 (stereo unspecified) [PIOGLITAZONE]
- Activity (3T3-L1 [3]): 5.51 mmol/L
- Activity (3T3-L1 [4]): 7.36 mmol/L
- Activity (3T3-L1 [5]): 8.15 mmol/L
- Activity (3T3-L1 [6]): Dose-dependent effect
- Activity (3T3-L1 [7]): Dose-dependent effect
- Activity (3T3-L1 [8]): 6.75 mmol/L

SMILES: CCCCCCCCCCCCCCCC(=O)Oc1ccc2c(c1)C(=O)/C(=C/c1ccc(OC)cc1)O2
- Activity (3T3-L1 [2]): 1.19%

SMILES: CCCCC/C=C\C=C\CCCCCCCCC(=O)Oc1ccc2c(c1)C(=O)/C(=C/c1cccc(Cl)c1)O2
- Activity (3T3-L1 [2]): -11.46%

SMILES: CCCCC/C=C\C=C\CCCCCCCCC(=O)Oc1ccc2c(c1)C(=O)/C(=C/c1cccc(OC)c1)O2
- Activity (3T3-L1 [2]): 6.45%
